Test results: the METLIN SMRT retention time set (Domingo-Almenara et al. 2019)

assay: gradient 5% acetonitrile 3 min, to 50% in 2 min, to 85% in 15 min, held 3 min, 100 µL/min; conditions: column: Zorbax Extend-C18 2.1 x 50 mm; eluents: water / acetonitrile, 0.1% formic acid
In short: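 Over 3 months, pure standards in mixtures of ~100 molecules were run by HPLC coupled to a quadrupole time-of-flight mass spectrometer in positive and negative ionization mode. The column was a Zorbax Extend-C18 (2.1 × 50 mm, 1.8 μm) at 100 μL/min, eluted with water and acetonitrile each holding 0.1% formic acid, with 40 μL dead and 900 μL dwell volumes. Retention time was determined from adduct peaks chosen by software and checked manually.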

Structure (SMILES)	RP-LC retention time [s]
COc1ccc(N2CCN(C(=O)c3csc(C(=O)NC4CC4)n3)CC2)cc1	700
O=C(CCC1CCCC1)N1CCN(C(=O)c2cc(-c3cccnc3)n[nH]2)CC1	652
O=C(NCc1ccccc1)c1cn(-c2ccc(NC(=O)C3CC3)cn2)cn1	725
COc1ccc(-c2nc3cnc(Br)cn3c2Nc2ccc3c(c2)OCCO3)cc1	900
Cc1ccc(NC(=O)C2CC(=O)N(CCc3c[nH]c4ccc(C)cc34)C2)cc1 (configuration not stated)	843
CC(=O)Nc1ccc(-n2c(-c3ccc(Cl)cc3)cn3c4c(=O)n(C)c(=O)n(C)c4nc23)cc1	766
COc1ccccc1-c1noc(Cn2c(=O)n(Cc3ccc4c(c3)OCO4)c(=O)c3sccc32)n1	956
O=C(NCc1ccco1)c1ccc2c(c1)nc1n2CCCCC1	596
O=C(CSc1ccc(N2CCN(c3ccc(F)cc3)CC2)nn1)NCC1CCCO1 (configuration not stated)	689
CCCNC(=O)C1CCN(c2ccc(SCC(=O)NCc3cc(F)cc(F)c3)nn2)CC1	626
Cc1ccc(N2C(=O)CCS2(=O)=O)cc1S(=O)(=O)Nc1cccc2cccnc12	808
CCC(=O)N1CCc2cc(N3CC(C(=O)Nc4ccccc4CC)CC3=O)ccc21 (configuration not stated)	750
Cc1ccc(C)c(NC(=O)N2CCN(c3ccc(=O)n(-c4ccccc4)n3)CC2)c1	820
CCOc1ccc(N2C(=O)C3N=NN(Cc4nc(-c5ccc(OC(C)C)cc5)no4)C3C2=O)cc1 (configuration not stated)	1120
COc1ccc(NC(=O)N2CCc3nc[nH]c3C2)cc1Cl	580
Cc1sc2ccn(C)c(=O)c2c1C(=O)N1CCN(c2ccccc2)CC1	728
COc1cc(C2OC(c3ccc(F)cc3)=NN2C(C)=O)cc(OC)c1OC (configuration not stated)	902
O=C(NCC1CCCO1)c1ccc(-c2cnc(Oc3ccc(F)cc3)nc2)cc1 (configuration not stated)	793
COCCc1noc(C2Cc3ccccc3N2C(=O)Nc2cc(C)cc(C)c2)n1 (configuration not stated)	968
CCOc1ccc(CNC(=O)c2cnc(N3CCN(C4CCCCC4)CC3)nc2N)cc1	658
CCCNC(=O)c1cn(-c2ccc(NC(=O)CC)cn2)cn1	636
COCCNC(=O)c1csc(N2CCN(c3cccc(OC)c3)CC2)n1	855
O=C(Cn1nc2c(cc1=O)CCCC2)Nc1cccc(N2CCCCS2(=O)=O)c1	715

Structure (SMILES)	RP-LC retention time [s]
O=C(NCC(=O)N1CCCc2ccccc21)c1ccoc1	708
Cc1cccc(-c2noc(Cc3nnc(-c4ccc(C)c(C)c4)o3)n2)c1	1190
O=C(NCCN1CCN(C(=O)CSc2nc3ccccc3s2)CC1)c1cccs1	577
O=C(NCC1(N2CCOCC2)CCOC1)Nc1cc(F)ccc1F (configuration not stated)	592
O=C(Cn1nc(N2CCOCC2)c2ccccc2c1=O)Nc1ccccc1C(F)(F)F	804
Cc1ccccc1NC(=O)Cn1c(N)nc(C)c(C)c1=O	596
O=C(NCc1ccccc1F)c1cccc(-c2ccc(N3CCCC3)nc2)c1	675
CCc1cc(C(=O)Nc2cc(C)ccc2F)nc2ccnn12	1150
CCCC(=O)Nc1cnc(-c2ccccc2)nc1	815
CCOc1cccc(CNC(=O)c2nc3cccnc3n(CC)c2=O)c1	548
O=C(NCCn1c(-c2ccccc2)nc2cccnc21)Nc1ccc2c(c1)OCO2	722
CN1C(=O)c2cc(S(=O)(=O)NCc3ccc(Cl)cc3)ccc2Oc2cccnc21	968
COc1cc2c(C(=O)OCCc3ccccn3)cn(-c3ccccc3)c(=O)c2cc1OC	670
Cc1cccc(NC(=O)C2(C)CCCCC(=O)N2)c1 (configuration not stated)	695
CN(C)c1ccc(C(=O)N2CCc3cn(C)c4cccc(c34)C2)cc1	671
Cc1ccc(NC(=O)NC2CCN(c3ccc(C)c(C)c3)C2=O)c(C)c1 (configuration not stated)	949
CCc1nnc2ccc(-c3noc(CNC(=O)c4ccccc4)n3)cn12	651
O=C(NCCc1ccncc1)C1CC(=O)N(c2n[nH]c3cc(Br)ccc23)C1 (configuration not stated)	601
CN(C)[C@@H]1CN(C(=O)c2ccc(F)c(F)c2)C[C@H]1CO	531
O=c1ccc(N2CCCC(NS(=O)(=O)c3ccc(F)c(Cl)c3)C2)n[nH]1 (configuration not stated)	706
COC(=O)c1cc(C)sc1NC(=O)CC1Sc2ccc(C(F)(F)F)cc2NC1=O (configuration not stated)	1030
CCCCC(=O)N(C)CCc1noc(-c2ccc(C(=O)N3CCOCC3)cc2)n1	686
CN1C(=O)C(C)(C(=O)Nc2ccccc2F)Oc2cccnc21 (configuration not stated)	780

Structure (SMILES)	RP-LC retention time [s]
Cc1cc(C(=O)N2CC(F)(F)C[C@H]2c2nc(C3CC3)no2)on1	809
Cc1cc(Br)ccc1NC(=O)C1CCCN(c2ncnc3c2nc2n3CCCCC2)C1 (configuration not stated)	895
CCc1noc(NC(C)=O)c1-c1ccc(OC)c(S(=O)(=O)Nc2ccc(OC)cc2)c1	749
CC(C)c1cc(C(=O)NC2CCCCCC2)n[nH]1	836
O=C(c1ccc(Br)o1)N1CCN(c2ccc(=O)n(-c3ccc(Cl)cc3)n2)CC1	878
CCCC(NC(=O)c1cccc(OC)c1)C(=O)Nc1nc2ccccc2[nH]1 (configuration not stated)	696
CC(=O)c1ccc(Oc2ccccc2)cc1	920
CC1CCN(S(=O)(=O)c2ccc(-c3nnc(C(=O)NCCCN4CCCC4)o3)cc2)CC1	689
Cc1ccc(CNS(=O)(=O)c2cc(-c3[nH]ncc3C(=O)N3CCCC3)oc2C)cc1	725
O=C(C1COc2ccccc2O1)N1CCCN(C2CCN(CC3CC3)C2=O)CC1 (configuration not stated)	560
CC(C)n1c(=O)c(Nc2cc(F)cc(F)c2)nc2ccncc21	719
CCOc1ccccc1NC(=O)Nc1cccc(-c2ccc(N3CCOCC3)nn2)c1	670
COc1ccc(NC(=O)C2CCN(S(=O)(=O)c3c(C)nn(-c4ccccc4)c3C)CC2)cc1	896
Cc1nc2c(OCc3ccccc3)cccn2c1CC#N	655
O=C(Nc1ccc2ncnc(N3CCCC3)c2c1)C1CCC1	628
O=C(NCCN1CCN(C(=O)c2ccc(Br)cc2)CC1)C(=O)NCc1ccco1	626
Cc1cccc(NC(=O)N2[C@H]3CC[C@@H]2c2cnc(-c4ccccc4)nc2C3)c1	982
c1ccc(-c2ccc3c(c2)NCCN3)cc1	650
O=C(CCc1cc2ccccc2[nH]c1=O)NCCN1CCc2ccccc2C1	607
Cn1nc(-c2nc(C3CC3)no2)c2c1CCN(S(=O)(=O)c1cccc(F)c1)C2	920
CCc1cccc(NC(=O)N2CCc3cn(CC)c4cccc(c34)C2)c1	1050
